What all share (assay): NCI-60 cell line screen, 48 h
For experiment [1], the system named is KM12 colon.
Experiment [2] relates to OVCAR-4 ovarian.
The subject of experiment [3] is SK-MEL-28 melanoma.
The subject of experiment [4] is UO-31 renal.
Experiment [5] concerns BT-549 breast.
The subject of experiment [6] is HOP-92 NSCLC.
Experiment [7] concerns SF-268 CNS.
The subject of experiment [8] is SN12C renal.
Experiment [9] deals with NCI/ADR-RES ovarian.
The test system of experiment [10] is NCI-H23 lung.

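Growth conditions: 96-well plates. Treatment: test compound, 48 hours, 5 concentrations. Analysis: linear interpolation between bracketing concentrations; unreached endpoints set to highest concentration. GI50 is the concentration that inhibits growth by half. TGI: total growth inhibition.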 A value given as a limit tells only on which side of the number the result lay.

In the case of `O=c1c(/C=C/c2c(O)ccc3ccccc23)nnc2sc(-c3cccc([N+](=O)[O-])c3)nn12`, the TGI in [1] was over 100 µM; in [2], 51.6 µM; in [3], over 100 µM; in experiment [4], over 100 µM; in experiment [5] it was over 100 µM; in [6], over 100 µM. Also, the TGI in experiment [7] was 89.8 µM; in experiment [8] it was over 100 µM; in experiment [9], 67.8 µM; in experiment [10], over 100 µM.

Regarding `O=C1OC(C2Cc3ccccc3C2=O)c2ccccc21` (stereo not drawn), the TGI in [1], in experiment [2], in experiment [3], in experiment [4], in experiment [5] and in [6] was over 100 µM each time. Moreover, the TGI in [7], in experiment [8], in experiment [9] and in experiment [10] was over 100 µM throughout.

`O=C(O)CCC(C(=O)O)N1C(=O)c2ccccc2C1=O` (stereo not drawn): the TGI in [1], in experiment [2], in experiment [3], in experiment [4], in experiment [5] and in experiment [6] was over 100 µM in each case. Also, the TGI in experiment [7], in [8], in experiment [9] and in experiment [10] was over 100 µM in each case.

Consider `O=c1c2ncn(C3CCCCO3)c2n(-c2ccccc2)c(=S)n1-c1ccccc1` (stereo not drawn), for which the TGI in [1] is over 100 µM; in experiment [2], over 87.2 µM; in experiment [3], over 100 µM; in experiment [4], over 71.4 µM; in experiment [5] it was 72.1 µM; in experiment [6], 31 µM. The TGI in experiment [7] was over 92.2 µM; in experiment [8] it was over 100 µM; in experiment [9], over 82.6 µM; in [10], 64.3 µM.

Take `C/C=C1/CN2[C@@H](C3=C[C@@H]4[C@@H]5N(C3=O)c3ccccc3[C@@]53CCN5C/C(=C/C)[C@@H]4C[C@H]53)C[C@@]34c5ccccc5N5C(=O)CC=C([C@H]1C[C@H]23)[C@H]54`: the TGI in [1] stood at 17 µM; in experiment [2], 19.9 µM; in experiment [3], 3.91 µM; in experiment [4], 8.34 µM; in experiment [5], 15.7 µM; in [6] it was 13.2 µM. Further, the TGI in experiment [7] was 14.1 µM; in experiment [8] it was 9.95 µM; in experiment [9] it was 33.6 µM; in [10], 14.3 µM.

Take `COc1cc(C(=O)O[C@H](C(=O)NCCNC(=O)[C@@H](OC(=O)c2cc(OC)cc3c(C)cccc23)[C@]2(C)CO2)[C@]2(C)CO2)c2cccc(C)c2c1`: the GI50 in experiment [1] is 0.0438 µM; in [2], 0.125 µM; in [3] it was 0.0524 µM; in [4], 0.137 µM; in [5] it was 0.335 µM; in experiment [6] it was 0.101 µM. Moreover, the GI50 in experiment [7] was under 0.01 µM; in [8], 0.0211 µM; in experiment [9] it was 0.25 µM; in [10], under 0.01 µM. Also, the TGI in experiment [1] is 0.278 µM; in experiment [2] it was over 100 µM; in [5] it was 3.39 µM; in [6], 0.404 µM; in experiment [7] it was 0.191 µM; in [8], 0.263 µM. Further, the TGI in [9] is 1.52 µM; in [10], 0.0987 µM.

In the case of `COC(=O)c1c(C)ccc2c(O)c3c(cc12)C(=O)c1c2c(cc(O)c1C3=O)C1(C)OC(C)(O2)C(O)C(N(C)C)C1O` (stereo not drawn), the TGI in experiment [1] was 2.97 µM; in [2], 8.81 µM; in experiment [3], 11.8 µM; in experiment [4], 9.27 µM; in [5] it was 10.7 µM; in experiment [6], over 100 µM. Further, the TGI in [7] was 2.7 µM; in experiment [8], 12.1 µM; in experiment [9] it was over 100 µM; in experiment [10], 3.03 µM.

For `N#CC(c1nc2ccccc2s1)c1nc(Cl)ncc1Br` (stereo not drawn), the TGI in [1] is over 100 µM; in [2], over 100 µM; in experiment [3], over 100 µM; in experiment [4], over 100 µM; in experiment [5], 80.5 µM; in experiment [6], 52 µM. The TGI was over 100 µM in experiment [7], over 100 µM in experiment [8], over 100 µM in experiment [9] and 73.9 µM in [10].

Regarding `NNC(=O)Cc1cccnc1`, the TGI in experiment [1], in experiment [2], in [3], in [4], in experiment [5] and in experiment [6] was over 100 µM throughout. In addition, the TGI in experiment [7], in experiment [8], in [9] and in experiment [10] was over 100 µM in each case.

In the case of `O=c1[nH]nc(-c2ccc([N+](=O)[O-])cc2)n1/N=C/c1ccc([N+](=O)[O-])cc1`, the TGI in experiment [1], in experiment [2], in [3], in experiment [4], in experiment [5] and in [6] was over 100 µM in each case. Further, the TGI in experiment [7], in experiment [8], in [9] and in experiment [10] was over 100 µM each time.

With `COc1ccc(-c2cc(C3CC3)nc(SCC(=O)O)c2C#N)cc1`, the TGI in experiment [1] was over 100 µM; in [2] it was over 100 µM; in [3], over 100 µM; in experiment [4], 11.1 µM; in experiment [5] it was over 100 µM; in experiment [6], over 100 µM. Moreover, the TGI in experiment [7], in experiment [8], in experiment [9] and in experiment [10] was over 100 µM each time.

As to `CC(=O)c1cc2c(s1)C(=O)c1scc(C(C)=O)c1C2=O`, the TGI in [1] was found to be 3.39 µM; in experiment [2], 0.454 µM; in [3], 1.59 µM; in experiment [4] it was 1.31 µM; in experiment [5], 2.68 µM; in experiment [6], 0.93 µM. The TGI came out at 1.5 µM in experiment [7], 0.426 µM in experiment [8], 0.737 µM in experiment [9] and 1.72 µM in [10].

Turning to `OC12C3C4CC5C(C4[C@@H]1Br)C2[C@@](O)(c1c(F)c(F)c(F)c(F)c1F)C53` (stereo partly drawn), the TGI in experiment [1] was 34.5 µM; in [2] it was over 100 µM; in experiment [3], over 100 µM; in experiment [4], 95.2 µM; in [5], over 100 µM; in experiment [6] it was 68.7 µM. Moreover, the TGI in experiment [7] was over 100 µM; in [8], over 100 µM; in experiment [9], 85.9 µM; in [10], over 100 µM.

For the compound `O=c1[nH]nc(Cc2ccccc2)n1/N=C/c1ccc([N+](=O)[O-])o1`, the TGI in experiment [1] is 6.49 µM; in experiment [2], 24.4 µM; in [3], 17.6 µM; in [4], over 100 µM; in experiment [5], 1.7 µM; in [6], 30.1 µM. Also, the TGI turned out to be 11.7 µM in [7], 46 µM in experiment [8], 13.1 µM in experiment [9] and 74.8 µM in [10].

Turning to `OCCN1CN(c2nc(N3CN(CCO)C3)nc(N3CN(CCO)C3)n2)C1`, the TGI in experiment [1] amounted to 47.9 µM; in experiment [2], 85.6 µM; in [3] it was 37.3 µM; in [4], 56.1 µM; in [5] it was 70.8 µM; in [6], 53 µM. For the same compound, the TGI was 48.3 µM in [7], 39.5 µM in experiment [8], over 100 µM in experiment [9] and 50 µM in [10].

In the case of `CCOP(=O)(CC1CC(O)(CNc2cc(Cl)nc(N)n2)C1)OCC` (stereo not drawn), the TGI in experiment [1], in experiment [2], in experiment [3], in experiment [4], in experiment [5] and in experiment [6] was over 100 µM each time. In addition, the TGI in [7], in [8], in experiment [9] and in [10] was over 100 µM each time.

In the case of `O=c1[nH]c(=S)c2cc3c(=S)[nH]c(=O)n(CCC(c4ccccc4)(c4ccccc4)c4ccccc4)c3nc2n1CCC(c1ccccc1)(c1ccccc1)c1ccccc1`, the TGI in experiment [1], in [2], in experiment [3], in [4], in experiment [5] and in experiment [6] was over 100 µM each time. Further, the TGI in [7], in experiment [8], in experiment [9] and in [10] was over 100 µM in each case.

With `COc1ccc(OC)c(C(=O)/C=C/c2cc(O)c(O)cc2F)c1`, the TGI was 13.8 µM in [1]; over 90 µM in experiment [2]; 35.8 µM in [3]; 28.7 µM in [4]; 19.6 µM in [5]; over 67 µM in experiment [6]. The TGI in [7] is over 44.9 µM; in experiment [8], 5.8 µM; in [9], over 89.5 µM; in [10], 10.4 µM.

Consider `COC(=O)C1=C(O)C(C(=O)OC)[C@]2(O)[C@H](C(=O)OC)[C@H]1C[C@@H](c1cccc(OC)c1)[C@H]2C(=O)OC` (stereo partly drawn), for which the TGI was 69.8 µM in experiment [1]; 96.4 µM in experiment [2]; over 100 µM in experiment [3]; 34.7 µM in experiment [4]; over 100 µM in experiment [5]; over 100 µM in [6]. The TGI in experiment [7] is over 100 µM; in experiment [8] it was 65.7 µM; in experiment [9], over 100 µM; in [10], over 100 µM.

In the case of `CN1[C@@H]2CCCC[C@H]2N(C)P1(=O)C(O)/C=C/c1ccccc1` (stereo partly drawn), the TGI in experiment [1], in experiment [2], in experiment [3], in [4], in experiment [5] and in [6] was over 100 µM each time. For the same compound, the TGI in experiment [7], in [8], in experiment [9] and in experiment [10] was over 100 µM each time.

As for `O=S(=O)(O)c1ccc2c(N=Nc3ccccc3)c(O)c(S(=O)(=O)O)cc2c1`, the TGI in experiment [1], in [2], in experiment [3], in experiment [4], in [5] and in [6] was over 100 µM throughout. The TGI in [7], in experiment [8], in [9] and in [10] was over 100 µM each time.

For the compound `O=C(O)CS(=O)c1ccc2c3c(cccc13)C(=O)c1ccccc1-2` (stereo not drawn), the TGI in [1], in [2], in experiment [3], in experiment [4], in experiment [5] and in experiment [6] was over 100 µM throughout. Further, the TGI in [7], in experiment [8], in [9] and in experiment [10] was over 100 µM each time.

Consider `N#CN=C1c2ccccc2C(=NC#N)c2cc(CO)ccc21`, for which the TGI was over 100 µM in experiment [1]; over 100 µM in experiment [2]; over 100 µM in experiment [3]; over 100 µM in experiment [4]; 95.6 µM in experiment [5]; 77 µM in [6]. For the same compound, the TGI in experiment [7] is over 100 µM; in experiment [8], over 100 µM; in experiment [9], 83.6 µM; in experiment [10], over 100 µM.

Regarding `Cc1ccc2ccc(=O)oc2c1`, the TGI in [1], in [2], in experiment [3], in [4], in [5] and in [6] was over 100 µM in each case. Further, the TGI in [7], in experiment [8], in [9] and in experiment [10] was over 100 µM each time.

With `CC(/C=N/N(C)C1=NCCCCN1)=N/N(C)C1=NCCCCN1`, the TGI in experiment [1], in [2], in experiment [3], in experiment [4], in [5] and in experiment [6] was over 100 µM throughout. Further, the TGI in experiment [7], in experiment [8], in experiment [9] and in experiment [10] was over 100 µM throughout.

Source of the values: PubChem BioAssay (NCI).
